Data on three molecules can be found in PMC9827845, “Active Pharmaceutical Ingredient Uptake by Zebrafish (Danio rerio) Oct2 (slc22a2) Transporter Expressed in Xenopus laevis Oocytes” (Environmental Toxicology and Chemistry, 2022).

Data set [1] has as its target T1, Oct2 (slc22a2) (Danio rerio, UniProt Q7T2C0).
T1 construct: complete Danio rerio slc22a2 cDNA clone (zgc:64076; IRBOp991A024D; oct2)
T1 sequence (Q7T2C0 1-562): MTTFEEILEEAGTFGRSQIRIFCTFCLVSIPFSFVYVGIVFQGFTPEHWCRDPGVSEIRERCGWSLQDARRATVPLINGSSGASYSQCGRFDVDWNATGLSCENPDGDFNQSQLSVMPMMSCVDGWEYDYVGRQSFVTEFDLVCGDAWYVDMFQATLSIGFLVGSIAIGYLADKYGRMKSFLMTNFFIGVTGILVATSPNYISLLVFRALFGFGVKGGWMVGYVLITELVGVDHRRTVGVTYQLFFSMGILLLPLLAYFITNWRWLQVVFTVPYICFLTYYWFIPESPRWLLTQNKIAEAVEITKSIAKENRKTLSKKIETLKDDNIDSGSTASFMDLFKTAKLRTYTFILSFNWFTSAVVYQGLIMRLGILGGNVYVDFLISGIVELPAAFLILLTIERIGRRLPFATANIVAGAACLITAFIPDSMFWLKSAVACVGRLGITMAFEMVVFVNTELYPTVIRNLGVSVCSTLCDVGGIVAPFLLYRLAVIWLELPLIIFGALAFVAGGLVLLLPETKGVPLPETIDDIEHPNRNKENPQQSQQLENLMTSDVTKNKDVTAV
Nature of the data set: radiolabelled uptake in Xenopus oocytes expressing zebrafish oct2 versus sham. The class given is cell-based.

Data set [2] addresses T1, Oct2 (slc22a2). The experiment in a line: inhibition of […] TEA uptake at […] in Xenopus oocytes expressing zebrafish oct2. It counts as cell-based.
Substrate in data set [3]: CC(C)NCC(O)COc1cccc2ccccc12
The experiment in a line: cells, lysate or membranes.

Substrate in data set [4]: CNC(=C[N+](=O)[O-])NCCSCc1ccc(CN(C)C)o1
Nature of the data set: cells, lysate or membranes.

`CC[N+](CC)(CC)CC` [TEA, tetraethylammonium]: the “radiolabelled uptake in Xenopus oocytes expressing zebrafish oct2 versus sham” value in data set [1] is “zebrafish oct2 when expressed in Xenopus oocytes can facilitate the transport of ranitidine, propranolol, and TEA”.

For `NC12CC3CC(CC(C3)C1)C2` [amantadine], the “inhibition of 200 μM TEA uptake at 2 mM in Xenopus oocytes expressing zebrafish” value in data set [2] was “Uptake of tetraethylammonium (TEA) was inhibited by propranolol, amantadine, and cimetidine”.

B1: Oct2 (slc22a2) (Danio rerio) (protein)
chain: T1 sequence (Q7T2C0 1-562)
With B1, the results for the Km in data set [3] and in data set [4] were 408.9 µM and 246.1 µM, respectively.

The Km is the substrate concentration at which the rate is half of its maximum.
